These results are taken from patent publication US20230265116A1, “DEGRADATION OF (EGFR) BY CONJUGATION OF EGFR INHIBITORS WITH E3 LIGASE LIGAND AND METHODS OF USE” (BEIGENE, LTD., priority 2020, published 2023).

Each structure is given as a SMILES string.

What all share (type): cell-based
One assay addresses T1, EGFR WT (BaF3 WT cells) (Homo sapiens, UniProt P00533).
T1 construct: expressed in transfected cells; host or cells: BaF3
The experiment in a line: EGFR degradation HTRF assay, BaF3 WT cells. As to conditions: BaF3 WT, 16h treatment; for Dmax: maximum percentage of degradation, read-out: WT Dmax (%). How it is done:
BaF3 WT(wild type), BaF3-LTC(L858R/T790M/C797S) and BaF3-DTC(Del19/T790M/C797S) cells are treated with compounds diluted in 0.2% DMSO cell culture medium and incubate for 16h, 37° C., 5% CO2, H1975-#36, H1975-#28, H1975-#23 and HCC827 cells are treated with compounds diluted in 0.2% DMSO cell culture medium on day 2, incubate for 16h, 37° C., 5% CO2.the final concentriation of compounds in all assay is start with 10 uM, 5-fold dilution, total 8 doses were included.
After 16h treatment, add HTRF lysis buffer to each well; seal the plate and incubate 1 hour at room temperature on a plate shaker; Once the cells are lysed, 16 μL of cell lysate are transferred to a PE 384-well HTRF detection plate; 4 μL of pre-mixed HTRF antibodies are added to each well; Cover the plate with a plate sealer, spin 1000 rpm for 1 min, Incubate overnight at room temperature; Read on BMG PheraStar with HTRF protocol (337 nm-665 nm-620 nm).
The inhibition (degradation) percentage of the compound was calculated by the following equation: Inhibition percentage of Compound=100-100×(Signal-low control)/(High control-low control), wherein signal=each test compound group
High control=Cell group with added DMSO and without compound, indicating microplate readings without EGFR degradation;
Dmax is the maximum percentage of inhibition (degradation).
The IC50 (DC50) value of a compound can be obtained by fitting the following equation
Y=Bottom+(TOP−Bottom)/(1+((IC50/X)^hillslope))
Wherein, X and Y are known values, and IC50, Hillslope, Top and Bottom are the parameters obtained by fitting with software. Y is the inhibition percentage (calculated from the equation), X is the concentration of the compound; IC50 is the concentration of the compound when the 50% inhibition is reached. The smaller the IC50 value is, the stronger the inhibitory ability of the compound is. Vice versa, the higher the IC50 value is, the weaker the inhibitory ability of the compound is; Hillslope represents the slope of the fitted curve, generally around 1*; Bottom represents the minimum value of the curve obtained by data fitting, which is generally 0%±20%; Top represents the maximum value of the curve obtained by data fitting, which is generally 100%±20%. The experimental data were fitted by calculating and analyzing with Dotmatics data analysis software.
In general terms: TR-FRET usually uses a lanthanide donor and a delayed reading to cut background.

The subject of assay [1] is EGFR Del19/T790M/C797S (BaF3-DTC cells). The experiment in a line: EGFR degradation HTRF assay, BaF3-DTC cells. The following applies: 16h treatment; for DTC Dmax (%): maximum percentage of degradation; for DC50: read-out: DTC DC50. In outline:
(§1)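 EGFR remaining after a 16 h, 37 °C exposure (8 doses, 5-fold steps from 10 uM final, 0.2% DMSO) was quantified by HTRF antibodies in cell lysate. Percent inhibition relative to DMSO control was fitted by four-parameter logistic to give DC50; Dmax denotes maximal degradation.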

For assay [2], the target named is T2, EGFR L858R/T790M/C797S (BaF3-LTC cells) (Homo sapiens, UniProt P00533, C797S/L858R/T790M).
T2 construct: expressed in transfected cells; host or cells: BaF3
T2 sequence (P00533 25-1210 T790M/C797S/L858R): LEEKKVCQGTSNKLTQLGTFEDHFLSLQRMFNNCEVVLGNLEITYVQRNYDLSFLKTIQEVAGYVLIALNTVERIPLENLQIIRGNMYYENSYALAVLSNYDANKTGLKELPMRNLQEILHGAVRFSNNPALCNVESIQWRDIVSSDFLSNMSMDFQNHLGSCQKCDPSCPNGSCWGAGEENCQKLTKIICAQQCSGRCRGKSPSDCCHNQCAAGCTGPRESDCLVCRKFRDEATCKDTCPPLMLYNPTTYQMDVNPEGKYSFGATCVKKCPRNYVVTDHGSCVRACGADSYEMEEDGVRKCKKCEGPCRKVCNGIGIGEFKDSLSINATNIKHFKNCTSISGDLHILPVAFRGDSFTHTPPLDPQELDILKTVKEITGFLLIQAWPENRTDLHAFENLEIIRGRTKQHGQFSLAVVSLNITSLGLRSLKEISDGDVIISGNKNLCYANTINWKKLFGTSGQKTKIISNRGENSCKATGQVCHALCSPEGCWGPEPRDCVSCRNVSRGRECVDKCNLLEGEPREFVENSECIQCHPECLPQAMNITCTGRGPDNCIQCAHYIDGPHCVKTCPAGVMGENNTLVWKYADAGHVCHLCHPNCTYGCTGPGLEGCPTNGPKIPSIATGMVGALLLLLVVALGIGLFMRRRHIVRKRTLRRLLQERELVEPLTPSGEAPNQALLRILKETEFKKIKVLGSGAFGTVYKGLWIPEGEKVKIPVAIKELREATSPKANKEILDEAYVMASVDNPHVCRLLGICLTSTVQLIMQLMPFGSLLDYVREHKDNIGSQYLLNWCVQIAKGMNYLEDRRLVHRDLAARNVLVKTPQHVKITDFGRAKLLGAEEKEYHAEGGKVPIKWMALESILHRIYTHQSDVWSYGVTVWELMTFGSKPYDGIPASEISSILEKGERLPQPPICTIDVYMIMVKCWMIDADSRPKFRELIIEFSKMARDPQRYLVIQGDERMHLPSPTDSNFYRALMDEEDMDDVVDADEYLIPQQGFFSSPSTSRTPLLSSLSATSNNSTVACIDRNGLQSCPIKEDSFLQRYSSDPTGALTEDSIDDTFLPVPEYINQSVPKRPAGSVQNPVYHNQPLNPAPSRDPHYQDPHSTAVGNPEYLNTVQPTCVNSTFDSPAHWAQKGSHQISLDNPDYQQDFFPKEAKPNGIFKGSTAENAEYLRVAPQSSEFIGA
Nature of the assay: EGFR degradation HTRF assay, BaF3-LTC cells. As to conditions: BaF3-LTC, 16h treatment; for Dmax: maximum percentage of degradation, read-out: LTC Dmax (%); for DC50: read-out: LTC DC50. The gist of the method: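 Cells treated 16 h at 37 °C, 5% CO2 in medium with 0.2% DMSO; top final concentration 10 uM, 5-fold dilution, 8 doses. Lysates read by HTRF (665/620 nm); degradation % versus DMSO high control, DC50 from four-parameter fit, Dmax as maximal degradation.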

For assay [3], the target named is T3, EGFR L858R/T790M (H1975-clone #36, homozygous) (Homo sapiens, UniProt P00533, L858R/T790M).
T3 construct: designed to specifically target WT EGFR but preserve the L858R/T790M copy; host or cells: H1975-clone #36
T3 sequence (P00533 25-1210 T790M/L858R): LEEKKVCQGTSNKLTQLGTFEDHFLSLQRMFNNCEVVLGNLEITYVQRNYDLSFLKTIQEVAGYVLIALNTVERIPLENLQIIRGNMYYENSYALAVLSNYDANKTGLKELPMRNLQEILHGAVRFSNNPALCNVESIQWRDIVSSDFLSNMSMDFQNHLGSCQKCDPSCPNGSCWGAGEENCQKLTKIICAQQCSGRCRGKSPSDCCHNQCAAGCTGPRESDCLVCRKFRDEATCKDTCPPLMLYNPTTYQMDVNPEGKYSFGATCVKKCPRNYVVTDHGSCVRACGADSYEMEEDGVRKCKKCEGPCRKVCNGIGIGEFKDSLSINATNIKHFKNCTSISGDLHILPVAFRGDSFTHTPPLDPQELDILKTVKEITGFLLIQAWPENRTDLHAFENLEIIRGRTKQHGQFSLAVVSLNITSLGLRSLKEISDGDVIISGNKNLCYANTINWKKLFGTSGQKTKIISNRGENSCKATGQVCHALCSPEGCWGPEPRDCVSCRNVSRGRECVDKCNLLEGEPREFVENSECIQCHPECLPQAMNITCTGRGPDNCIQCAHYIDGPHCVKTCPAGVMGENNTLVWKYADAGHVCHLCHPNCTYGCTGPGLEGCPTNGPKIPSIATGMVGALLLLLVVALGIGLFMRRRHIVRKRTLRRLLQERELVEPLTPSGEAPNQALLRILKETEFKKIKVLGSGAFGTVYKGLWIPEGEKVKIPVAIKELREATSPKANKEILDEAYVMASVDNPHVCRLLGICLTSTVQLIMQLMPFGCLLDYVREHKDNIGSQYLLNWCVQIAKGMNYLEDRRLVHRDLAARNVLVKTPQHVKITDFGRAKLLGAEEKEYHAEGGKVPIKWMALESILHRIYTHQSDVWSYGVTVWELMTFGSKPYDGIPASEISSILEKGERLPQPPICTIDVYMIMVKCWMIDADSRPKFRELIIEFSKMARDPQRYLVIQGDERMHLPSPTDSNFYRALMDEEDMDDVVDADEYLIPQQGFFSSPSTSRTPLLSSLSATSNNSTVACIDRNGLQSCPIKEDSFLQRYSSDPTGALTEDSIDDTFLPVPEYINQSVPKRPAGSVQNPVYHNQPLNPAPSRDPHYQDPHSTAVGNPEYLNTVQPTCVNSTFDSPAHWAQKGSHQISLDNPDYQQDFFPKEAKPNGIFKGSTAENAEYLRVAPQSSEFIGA
Nature of the assay: EGFR degradation HTRF assay, H1975-clone #36 cells. As to conditions: H1975 #36, 16h treatment; for Dmax: NCI-H1975, maximum percentage of degradation. In outline:
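H1975 clone #36, made homozygous for L858R/T790M EGFR by knockout of the WT allele, treated 16 h at 37 °C with compound in 0.2% DMSO medium. Eight doses from 10 uM, 5-fold dilutions. EGFR measured by HTRF in lysates. DC50 and Dmax fitted against DMSO controls.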

For a further assay, the target named is T4, EGFR (HCC827 cells) (Homo sapiens, UniProt P00533, DEL746-750).
T4 construct: endogenous in cells; host or cells: HCC827
T4 sequence (P00533 with tags, fused parts or gaps DEL746-750): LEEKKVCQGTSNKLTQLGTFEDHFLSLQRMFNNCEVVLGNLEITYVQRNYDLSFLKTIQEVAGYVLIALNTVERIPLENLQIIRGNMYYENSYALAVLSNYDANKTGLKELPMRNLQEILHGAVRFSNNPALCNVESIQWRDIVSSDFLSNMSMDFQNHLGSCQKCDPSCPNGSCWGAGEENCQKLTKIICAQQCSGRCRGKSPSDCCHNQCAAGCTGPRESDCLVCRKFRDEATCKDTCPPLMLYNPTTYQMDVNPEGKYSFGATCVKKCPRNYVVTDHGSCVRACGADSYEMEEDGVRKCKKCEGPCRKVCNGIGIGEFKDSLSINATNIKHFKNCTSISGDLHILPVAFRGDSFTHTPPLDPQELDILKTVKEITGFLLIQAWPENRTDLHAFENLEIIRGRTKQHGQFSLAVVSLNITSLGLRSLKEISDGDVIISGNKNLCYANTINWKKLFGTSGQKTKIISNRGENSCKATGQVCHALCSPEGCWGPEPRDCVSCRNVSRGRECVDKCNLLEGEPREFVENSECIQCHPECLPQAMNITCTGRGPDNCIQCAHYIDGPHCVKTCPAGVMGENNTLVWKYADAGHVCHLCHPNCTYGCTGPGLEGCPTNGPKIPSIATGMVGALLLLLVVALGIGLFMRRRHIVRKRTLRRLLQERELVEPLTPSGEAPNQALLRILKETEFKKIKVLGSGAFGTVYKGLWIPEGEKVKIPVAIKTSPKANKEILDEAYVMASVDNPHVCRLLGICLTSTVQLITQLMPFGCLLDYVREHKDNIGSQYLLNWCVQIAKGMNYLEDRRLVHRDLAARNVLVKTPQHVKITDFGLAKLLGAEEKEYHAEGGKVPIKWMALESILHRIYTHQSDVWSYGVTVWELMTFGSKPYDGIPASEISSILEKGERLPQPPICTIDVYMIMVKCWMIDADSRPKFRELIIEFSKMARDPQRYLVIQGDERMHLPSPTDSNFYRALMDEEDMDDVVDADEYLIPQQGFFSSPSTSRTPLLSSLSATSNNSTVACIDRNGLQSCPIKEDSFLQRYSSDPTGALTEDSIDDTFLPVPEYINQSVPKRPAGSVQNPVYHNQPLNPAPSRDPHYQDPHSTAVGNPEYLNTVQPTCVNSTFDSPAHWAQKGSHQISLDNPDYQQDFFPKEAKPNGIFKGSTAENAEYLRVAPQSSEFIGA
Nature of the assay: EGFR degradation HTRF assay, HCC827 cells. As to conditions: HCC827, 16h treatment; for Dmax: maximum percentage of degradation. The gist of the method:
as §1

T1 sequence (P00533 25-1210): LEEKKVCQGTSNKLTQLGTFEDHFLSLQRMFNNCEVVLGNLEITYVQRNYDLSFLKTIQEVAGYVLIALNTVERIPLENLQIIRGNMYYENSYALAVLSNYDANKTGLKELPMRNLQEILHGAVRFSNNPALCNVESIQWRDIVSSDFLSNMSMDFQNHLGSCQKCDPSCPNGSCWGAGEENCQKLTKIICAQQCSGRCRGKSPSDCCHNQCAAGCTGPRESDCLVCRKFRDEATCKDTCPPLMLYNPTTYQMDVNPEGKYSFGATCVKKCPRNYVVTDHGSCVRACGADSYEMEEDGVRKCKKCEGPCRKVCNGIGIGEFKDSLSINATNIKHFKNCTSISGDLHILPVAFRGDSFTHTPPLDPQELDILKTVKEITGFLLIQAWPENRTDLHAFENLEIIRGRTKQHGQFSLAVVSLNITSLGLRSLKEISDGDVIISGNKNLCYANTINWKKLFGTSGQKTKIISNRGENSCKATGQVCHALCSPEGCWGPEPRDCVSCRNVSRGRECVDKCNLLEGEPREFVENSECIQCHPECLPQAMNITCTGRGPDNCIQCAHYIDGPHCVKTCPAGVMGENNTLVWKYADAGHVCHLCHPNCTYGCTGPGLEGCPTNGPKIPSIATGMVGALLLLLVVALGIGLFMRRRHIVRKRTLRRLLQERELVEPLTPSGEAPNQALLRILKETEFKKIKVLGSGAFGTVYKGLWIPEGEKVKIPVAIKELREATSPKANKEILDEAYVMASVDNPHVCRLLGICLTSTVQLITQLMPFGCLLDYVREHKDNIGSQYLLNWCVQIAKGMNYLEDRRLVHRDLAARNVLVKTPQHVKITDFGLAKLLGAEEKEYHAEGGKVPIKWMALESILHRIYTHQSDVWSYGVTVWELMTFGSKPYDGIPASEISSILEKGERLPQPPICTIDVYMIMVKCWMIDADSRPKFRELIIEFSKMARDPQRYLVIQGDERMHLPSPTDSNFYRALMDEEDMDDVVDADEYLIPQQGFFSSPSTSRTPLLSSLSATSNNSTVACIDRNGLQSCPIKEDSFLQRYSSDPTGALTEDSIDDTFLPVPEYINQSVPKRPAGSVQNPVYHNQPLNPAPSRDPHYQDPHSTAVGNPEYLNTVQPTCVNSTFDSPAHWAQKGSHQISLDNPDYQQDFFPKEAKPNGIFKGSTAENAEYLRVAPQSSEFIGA

As for `COc1cc(N2CCC(N3CCN(C(=O)CCCCN4CCN(c5ccc6c(c5)C(=O)N(C5CCC(=O)NC5=O)C6=O)CC4)CC3)CC2)ccc1Nc1ncc(Cl)c(Nc2ccccc2N(C)S(C)(=O)=O)n1` (stereo not shown) [Example 128, N-(2-((5-chloro-2-((4-(4-(4-(5-(4-(2-(2,6-dioxopiperidin-3-yl)-1,3-dioxoisoindolin-5-yl)piperazin-1-yl)pentanoyl)piperazin-1-yl)piperidin-1-yl)-2-methoxyphenyl)amino)pyrimidin-4-yl)amino)phenyl)-N-methylmethanesulfonamide], the DC50 is above 10 µM on EGFR WT (BaF3 WT cells); 0.0537 µM in assay [1]; 0.168 µM in assay [2]; 0.0115 µM in assay [3]; 0.0032 µM on EGFR (HCC827 cells). In addition, the maximal degradation (Dmax) at EGFR WT (BaF3 WT cells) was found to be 15.3%; in assay [2], 86.2%; in assay [3], 85%; at EGFR (HCC827 cells), 84%. The “DTC Dmax (%)” value in assay [1] is 99.67%.
With `CP(C)(=O)c1c(Nc2nc(Nc3ccc(N4CCN(C5CN(CCC6CCN(c7ccc(C8CCC(=O)NC8=O)c(F)c7)CC6)C5)CC4)c(F)c3)ncc2Br)ccc2nccnc12` (stereo not shown) [Example 203, 3-(4-(4-(2-(3-(4-(4-((5-bromo-4-((5-(dimethylphosphoryl)quinoxalin-6-yl)amino)pyrimidin-2-yl)amino)-2-fluorophenyl)piperazin-1-yl)azetidin-1-yl)ethyl)piperidin-1-yl)-2-fluorophenyl)piperidine-2,6-dione], the DC50 was above 10 µM on EGFR WT (BaF3 WT cells); 0.0135 µM in assay [1]; 0.017 µM in assay [2]; 0.00724 µM in assay [3]; 0.00906 µM on EGFR (HCC827 cells). For the same molecule, the maximal degradation (Dmax) on EGFR WT (BaF3 WT cells) was 35.3%; in assay [2] it was 82.1%; in assay [3], 95.8%; on EGFR (HCC827 cells), 89.9%. Besides, the “DTC Dmax (%)” value in assay [1] is 92.4%.
On to `CP(C)(=O)c1c(Nc2nc(Nc3ccc(N4CCN(C5CN(CC6CN(c7ccc8c(c7)C(=O)N(C7CCC(=O)NC7=O)C8=O)C6)C5)CC4)c(F)c3)ncc2Br)ccc2nccnc12` (stereo not shown) [Example 259, 5-(3-((3-(4-(4-((5-bromo-4-((5-(dimethylphosphoryl)quinoxalin-6-yl)amino)pyrimidin-2-yl)amino)-2-fluorophenyl)piperazin-1-yl)azetidin-1-yl)methyl)azetidin-1-yl)-2-(2,6-dioxopiperidin-3-yl)isoindoline-1,3-dione], for which the 50% degradation concentration (DC50) on EGFR WT (BaF3 WT cells) is above 10 µM; in assay [1], 0.00372 µM; in assay [2], 0.00704 µM; in assay [3] it was 0.00469 µM; at EGFR (HCC827 cells), 0.00533 µM. For the same molecule, the Dmax at EGFR WT (BaF3 WT cells) was determined as 11.7%; in assay [2], 92.1%; in assay [3] it was 99.9%; at EGFR (HCC827 cells), 81%. For the same molecule, the “DTC Dmax (%)” value in assay [1] was 95.97%.
For `CCc1cc(Nc2ncc(Br)c(Nc3ccc4nccnc4c3P(C)(C)=O)n2)c(OC)cc1N1CCC(N2CCN(CC3CCN(c4ccc5c(c4)C(=O)N(C4CCC(=O)NC4=O)C5=O)CC3)CC2)CC1` (stereo not shown) [Example 272, 5-(4-((4-(1-(4-((5-bromo-4-((5-(dimethylphosphoryl)quinoxalin-6-yl)amino)pyrimidin-2-yl)amino)-2-ethyl-5-methoxyphenyl)piperidin-4-yl)piperazin-1-yl)methyl)piperidin-1-yl)-2-(2,6-dioxopiperidin-3-yl)isoindoline-1,3-dione], the DC50 on EGFR WT (BaF3 WT cells) was above 10 µM; in assay [1] it was 0.0219 µM; in assay [2], 0.0356 µM; in assay [3], 0.0105 µM; at EGFR (HCC827 cells), 0.00535 µM. Moreover, the maximal degradation (Dmax) on EGFR WT (BaF3 WT cells) was found to be 12.1%; in assay [2] it was 90.9%; in assay [3], 75%; at EGFR (HCC827 cells), 86.2%. Also, in assay [1], the “DTC Dmax (%)” value is 91.58%.

By DC50 is commonly meant the concentration at which degradation of the target reaches its halfway point. A word on the Dmax: it is the greatest extent of degradation seen.
